Data taken from the NIST ThermoML archive (doi:10.1021/je900048r).

Experiment: xn = mol fraction of the nth substance listed
Conditions: Liquid, Other PVT measurement

CCCCn1cc[n+](C)c1.F[B-](F)(F)F [1-butyl-3-methylimidazolium tetrafluoroborate] + CCO
mass density [kg/m3]
Conditions | x1 = 0.2 | x1 = 0.3 | x1 = 0.3999 | x1 = 0.4998 | x1 = 0.6 | x1 = 0.6996 | x1 = 0.8001 | x1 = 0.8998 | x1 = 1
313.15 K, 200 kPa | 965 | 1022 | 1071 | 1098 | 1121 | 1142 | 1158 | 1173 | 1185
313.15 K, 600 kPa | 966 | 1023 | 1072 | 1098 | 1122 | 1142 | 1158 | 1174 | 1186
313.15 K, 1000 kPa | 966 | 1023 | 1072 | 1098 | 1122 | 1143 | 1159 | 1174 | 1186
313.15 K, 1400 kPa | 966 | 1024 | 1072 | 1099 | 1123 | 1144 | 1159 | 1174 | 1186
313.15 K, 1800 kPa | 967 | 1024 | 1073 | 1099 | 1123 | 1144 | 1160 | 1174 | 1187
313.15 K, 2000 kPa | 967 | 1024 | 1073 | 1102 | 1123 | 1144 | 1160 | 1175 | 1187
353.15 K, 200 kPa | 935 | 993 | 1042 | 1070 | 1094 | 1116 | 1131 | 1147 | 1159
353.15 K, 600 kPa | 935 | 993 | 1042 | 1071 | 1094 | 1116 | 1132 | 1147 | 1160
353.15 K, 1000 kPa | 935 | 993 | 1043 | 1071 | 1095 | 1116 | 1132 | 1147 | 1160
353.15 K, 1400 kPa | 936 | 994 | 1043 | 1071 | 1095 | 1116 | 1133 | 1147 | 1160
353.15 K, 1800 kPa | 936 | 994 | 1043 | 1071 | 1095 | 1116 | 1133 | 1148 | 1161
353.15 K, 2000 kPa | 937 | 994 | 1043 | 1072 | 1096 | 1117 | 1133 | 1148 | 1161
393.15 K, 600 kPa | 904 | 964 | 1014 | 1042 | 1067 | 1090 | 1106 | 1122 | 1135
393.15 K, 1000 kPa | 904 | 965 | 1014 | 1043 | 1068 | 1090 | 1106 | 1122 | 1135
393.15 K, 1400 kPa | 905 | 965 | 1015 | 1043 | 1068 | 1090 | 1107 | 1122 | 1135
393.15 K, 1800 kPa | 905 | 965 | 1015 | 1044 | 1069 | 1091 | 1107 | 1123 | 1136
393.15 K, 2000 kPa | 905 | 966 | 1015 | 1044 | 1069 | 1091 | 1108 | 1123 | 1136
433.15 K, 1400 kPa | 871 | 935 | 987 | 1016 | 1041 | 1065 | 1081 | 1097 | 1112
433.15 K, 1800 kPa | 872 | 935 | 987 | 1017 | 1042 | 1066 | 1082 | 1097 | 1113
433.15 K, 2000 kPa | 872 | 935 | 987 | 1017 | 1042 | 1066 | 1082 | 1098 | 1113

CCCCn1cc[n+](C)c1.F[B-](F)(F)F [1-butyl-3-methylimidazolium tetrafluoroborate] + CC#N
mass density [kg/m3]
Conditions | x1 = 0.1 | x1 = 0.2 | x1 = 0.3 | x1 = 0.4 | x1 = 0.5 | x1 = 0.6 | x1 = 0.6999 | x1 = 0.7998 | x1 = 0.8993 | x1 = 1
313.15 K, 200 kPa | 893 | 980 | 1040 | 1077 | 1105 | 1127 | 1146 | 1161 | 1175 | 1185
313.15 K, 600 kPa | 894 | 981 | 1041 | 1078 | 1106 | 1127 | 1147 | 1162 | 1175 | 1186
313.15 K, 1000 kPa | 895 | 982 | 1041 | 1078 | 1106 | 1128 | 1147 | 1162 | 1175 | 1186
313.15 K, 1400 kPa | 895 | 982 | 1041 | 1079 | 1106 | 1128 | 1147 | 1162 | 1175 | 1186
313.15 K, 1800 kPa | 895 | 983 | 1041 | 1079 | 1106 | 1128 | 1147 | 1163 | 1176 | 1187
313.15 K, 2000 kPa | 896 | 983 | 1042 | 1079 | 1107 | 1129 | 1148 | 1163 | 1176 | 1187
353.15 K, 200 kPa | 857 | 947 | 1008 | 1047 | 1076 | 1098 | 1118 | 1134 | 1148 | 1159
353.15 K, 600 kPa | 858 | 948 | 1009 | 1047 | 1076 | 1099 | 1119 | 1134 | 1148 | 1160
353.15 K, 1000 kPa | 858 | 948 | 1009 | 1048 | 1077 | 1099 | 1119 | 1134 | 1148 | 1160
353.15 K, 1400 kPa | 858 | 948 | 1010 | 1048 | 1077 | 1100 | 1119 | 1134 | 1149 | 1160
353.15 K, 1800 kPa | 859 | 949 | 1010 | 1049 | 1077 | 1100 | 1120 | 1134 | 1149 | 1161
353.15 K, 2000 kPa | 859 | 949 | 1010 | 1049 | 1078 | 1100 | 1120 | 1135 | 1149 | 1161
393.15 K, 600 kPa | 820 | 914 | 978 | 1018 | 1048 | 1072 | 1092 | 1108 | 1123 | 1135
393.15 K, 1000 kPa | 821 | 915 | 978 | 1018 | 1048 | 1072 | 1092 | 1108 | 1123 | 1135
393.15 K, 1400 kPa | 821 | 915 | 979 | 1019 | 1048 | 1073 | 1092 | 1108 | 1123 | 1135
393.15 K, 1800 kPa | 822 | 915 | 979 | 1019 | 1049 | 1073 | 1093 | 1108 | 1123 | 1136
393.15 K, 2000 kPa | 822 | 916 | 979 | 1019 | 1049 | 1073 | 1093 | 1108 | 1124 | 1136
433.15 K, 1000 kPa | 781 | 881 | 947 | 989 | 1021 | 1045 | 1066 | 1082 | 1098 | 1112
433.15 K, 1400 kPa | 782 | 882 | 948 | 990 | 1021 | 1045 | 1066 | 1082 | 1098 | 1112
433.15 K, 1800 kPa | 783 | 882 | 948 | 990 | 1021 | 1046 | 1067 | 1083 | 1098 | 1113
433.15 K, 2000 kPa | 783 | 882 | 949 | 990 | 1021 | 1046 | 1067 | 1083 | 1099 | 1113
473.15 K, 1800 kPa | 741 | 847 | 917 | 960 | 993 | 1018 | 1040 | 1057 | 1072 | 1086
473.15 K, 2000 kPa | 742 | 848 | 917 | 960 | 993 | 1019 | 1041 | 1057 | 1073 | 1087
